Consider 6 molecules from patent US20120010266A1, “TBC1D7 AS TUMOR MARKER AND THERAPEUTIC TARGET FOR CANCER” (Oncotherapy Science Inc.,, priority 2008, published 2012).

The test system of data set [1] is lung cancer LC319 cells. Nature of the data set: Dominant-negative peptide assay, MTT, LC319 cells. The settings on record: peptide 10, 15 or 20 microM for 3 days. The data set is classed as cell-based, human. From the text:
(§1) Twenty-amino-acid sequence derived from minimized TSC1-binding domain in TBC1D7 (codons 112-171; see FIG. 5B) was covalently linked at its N-terminus to a membrane transducing 11 poly-arginine sequence (11R) as described elsewhere (Hayama S, Daigo Y, Kato T, et al. Cancer Res 2006; 66:10339-48, Hayama S, Daigo Y, Yamabuki T, et al. Cancer Res 2007; 67:4113-22). Three dominant-negative peptides were synthesized covering the codons 112-171 region: 11R-TBC112-131, RRRRRRRRRRR-GGG-[…] (SEQ ID NO.:23); 11R-TBC132-151, RRRRRRRRRRR-GGG-[…] (SEQ ID NO.:24); 11R-TBC152-171 RRRRRRRRRRR-GGG-[…] (SEQ ID NO.:25). Peptides were purified by preparative reverse-phase high-performance liquid chromatography to make >95% purity. […] The viability of cells was evaluated by MTT assay at 3 days after the treatment.

For data set [2], the system named is TBC1D7. Nature of the data set: RNA interference assay: knockdown of TBC1D7 expression, semiquantitative RT-PCR. The data set is classed as cell-based, human. The settings on record: LC319 and A549 cells; siRNA duplexes 100 nM transfected; versus control siRNAs (si-EGFP, si-LUC). On the procedure:
Total RNA was extracted from cultured cells and clinical tissues using Trizol reagent (Life Technologies, Inc.) according to the manufacturer's protocol. Extracted RNAs were treated with DNase I (Nippon Gene) and reversely-transcribed using oligo (dT) primer and SuperScript II reverse transcriptase (Invitrogen). […]
(§2) Small interfering RNA (siRNA) duplexes (Dharmacon, Inc.) (100 nM) were transfected into a NSCLC cell line, A549 and esophageal cancer cell line, TE9, using […] Lipofectamine 2000 (Invitrogen) following the manufacturer's protocol. The transfected cells were cultured for 7 days, and the number of colonies was counted by Giemsa staining, and viability of cells was evaluated by 3-(4,5-dimethylthiazol-2-yl)-2,5-diphenyltetrazolium bromide (MTT) assay (cell counting kit-8 solution; Dojindo Laboratories), at 7 days after transfection. […]
(§3) Small interfering RNA (siRNA) duplexes (100 nM) were transfected into a NSCLC cell line, A549 and LC319, using 24 microL of Lipofectamine 2000 (Invitrogen) following the manufacturer's protocol. The transfected cells were cultured for 7 days, and the number of colonies was counted by Giemsa staining, and viability of cells was evaluated by 3-(4,5-dimethylthiazol-2-yl)-2,5-diphenyltetrazolium bromide (MTT) assay (cell counting kit-8 solution; Dojindo Laboratories), at 7 days after transfection. […]

In data set [3] the test system is LC319 and A549 cell lines. Kind of data set: MTT assay of lung cancer cells transfected with siRNAs against TBC1D7. The format is cell-based, human. The settings on record: 7 days after transfection, siRNA 100 nM. As to the method: as §2, with “transfection. To confirm suppression of TBC1D7 expression, semiquantitative RT-PCR was carried out with synthesized primers specific for TBC1D7 described above. SiRNA duplexes against human TBC1D7, si-TBC1D7-#1: siGenome duplexes 1 [D-021140-01: […]] (SEQ ID NO: 3 for target sequence SEQ ID NO.: 18) and si-TBC1D7-#2: siGenome duplexes 4 [D-021140-4: […]]” for “transfection.”
as §3
A general note: Tetrazolium dyes change colour on reduction, which living cells bring about.

Data set [4] concerns LC319 and A549 cell lines. Nature of the data set: Colony formation assay (Giemsa staining) of lung cancer cells transfected with siRNAs against TBC1D7. The data set is classed as cell-based, human. The settings on record: cultured 7 days after transfection, siRNA 100 nM. As to the method:
as §2, with “transfection. To confirm suppression of TBC1D7 expression, semiquantitative RT-PCR was carried out with synthesized primers specific for TBC1D7 described above. SiRNA duplexes against human TBC1D7, si-TBC1D7-#1: siGenome duplexes 1 [D-021140-01: […]] (SEQ ID NO: 3 for target sequence SEQ ID NO.: 18) and si-TBC1D7-#2: siGenome duplexes 4 [D-021140-4: […]]” for “transfection.”
as §3

In data set [5] the test system is normal human lung fibroblast-derived CCD19Lu cells. The format is cell-based. The settings on record: CCD19Lu cells in which TBC1D7 expression was hardly detectable, peptide 10, 15 or 20 microM for 3 days.
Description: as §1

For data set [6], the system named is lung cancer LC319 cells. Nature of the data set: Flow cytometric cell cycle analysis after si-TBC1D7 transfection. The settings on record: 48 to 96 hours after transfection. The data set is classed as cell-based, human. On the procedure: Cells were collected in PBS, and fixed in 70% cold ethanol for 30 minutes. After treatment with 100 micro g/mL RNase (Sigma/Aldrich, St. Louis, Mo.), the cells were stained with 50 micro g/mL propidium iodide (Sigma/Aldrich, St. Louis, Mo.) in PBS. Flow cytometry was done on a Becton Dickinson FACScan and analyzed by ModFit software (Verity Software House, Inc., Topsham, Me.). The cells selected from at least 10,000 ungated cells were analyzed for DNA content.
A general note: A flow cytometer gives signals particle by particle.

In data set [7] the target is T1, endogenous TSC1 protein (human, lung cancer LC319 cells) (human, UniProt Q92574 1-1164, limits assumed).
T1 construct: Endogenous protein in LC319 cell extracts
T1 sequence: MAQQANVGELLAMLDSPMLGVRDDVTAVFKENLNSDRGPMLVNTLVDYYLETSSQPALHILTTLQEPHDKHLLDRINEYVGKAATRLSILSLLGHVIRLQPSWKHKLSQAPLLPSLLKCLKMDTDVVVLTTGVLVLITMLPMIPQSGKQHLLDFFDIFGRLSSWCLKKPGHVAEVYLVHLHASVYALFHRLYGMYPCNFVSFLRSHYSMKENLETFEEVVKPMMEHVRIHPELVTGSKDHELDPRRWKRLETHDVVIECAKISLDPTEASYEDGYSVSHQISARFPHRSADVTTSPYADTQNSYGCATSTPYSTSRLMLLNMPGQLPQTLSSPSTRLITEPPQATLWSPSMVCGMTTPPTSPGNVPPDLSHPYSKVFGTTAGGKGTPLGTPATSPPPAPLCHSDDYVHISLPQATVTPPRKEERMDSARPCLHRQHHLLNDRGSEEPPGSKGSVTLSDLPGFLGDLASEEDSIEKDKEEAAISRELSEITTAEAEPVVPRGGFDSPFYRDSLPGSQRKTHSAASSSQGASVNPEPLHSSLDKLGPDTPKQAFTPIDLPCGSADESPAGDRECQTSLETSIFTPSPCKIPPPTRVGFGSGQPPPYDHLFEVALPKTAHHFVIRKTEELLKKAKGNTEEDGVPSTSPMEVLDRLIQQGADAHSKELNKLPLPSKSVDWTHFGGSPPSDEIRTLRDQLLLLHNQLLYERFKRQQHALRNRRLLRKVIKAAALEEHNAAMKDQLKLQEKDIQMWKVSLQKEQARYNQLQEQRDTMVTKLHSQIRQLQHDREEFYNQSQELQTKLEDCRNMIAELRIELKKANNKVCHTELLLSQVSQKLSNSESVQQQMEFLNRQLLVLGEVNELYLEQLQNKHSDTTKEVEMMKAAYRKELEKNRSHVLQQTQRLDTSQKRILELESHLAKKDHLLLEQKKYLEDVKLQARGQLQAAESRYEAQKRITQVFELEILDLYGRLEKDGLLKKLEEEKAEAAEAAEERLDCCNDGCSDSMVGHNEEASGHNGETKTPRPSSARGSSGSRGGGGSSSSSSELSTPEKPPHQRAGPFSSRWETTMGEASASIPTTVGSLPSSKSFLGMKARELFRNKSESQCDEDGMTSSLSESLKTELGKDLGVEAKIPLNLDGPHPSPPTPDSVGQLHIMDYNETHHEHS
Nature of the data set: summary of the immunoprecipitation results in the discussion.

Like-named read-outs stand apart in the source and are kept apart here. No end group written: not given here.

As to “RRRRRRRRRRR-GGG-EVFLAIAKAMEEMVEDSVDC (RRRRRRRRRRRGGGEVFLAIAKAMEEMVEDSVDC; a dominant-negative peptide) [11R-TBC1D7132-151]”, the “cell viability / cell growth, MTT assay” value in data set [1] is listed as “no effect on cell growth”.
On to “si-TBC1D7-#2: siRNA duplex against human TBC1D7, GAUAAAGUUGUGAGUGGAUUU (SEQ ID NO: 4, target SEQ ID NO: 19), purchased from Dharmacon (chemistry not given here)”, for which the “knockdown effect on TBC1D7 expression (RT-PCR)” value in data set [2] is “knockdown effect was confirmed”. The “number / viability of cells, MTT assay (cell growth)” value in data set [3] is given as “drastic reduction in the number of cells”. In data set [4], the “number of cells / colonies, colony-formation assay” value is “drastic reduction in the number of cells”.
As for “RRRRRRRRRRRGGGYWITRRFVNQLNTKYRDSLP [11R-TBC1D7152-171]”, the “cell viability of normal cells (off-target toxic effect), MTT assay” value in data set [5] is “no effect on cell viability”; in data set [5] (listed as 11R-TBC152-171), “no off-target effect”.
For “si-TBC1D7-#1: siRNA duplex against human TBC1D7, GAACAGUGCAGAGAAGAUAUU (SEQ ID NO: 3, target SEQ ID NO: 18), purchased from Dharmacon (chemistry not given here)”, the “knockdown effect on TBC1D7 expression (RT-PCR)” value in data set [2] is “knockdown effect was confirmed”. Besides, the “number / viability of cells, MTT assay (cell growth)” value in data set [3] was “drastic reduction in the number of cells”. Besides, the “number of cells / colonies, colony-formation assay” value in data set [4] is “drastic reduction in the number of cells”. In data set [6], the “number of cells in S phase” value is “continuously decreased” and the “proportion of the cells in G2/M phase” value was “increased”.
Take “RRRRRRRRRRR-GGG-YQLESGKLPRSPSFPLEPDD (RRRRRRRRRRRGGGYQLESGKLPRSPSFPLEPDD; a dominant-negative peptide) [11R-TBC1D7112-131]”: the “cell viability / cell growth, MTT assay” value in data set [1] was “no effect on cell growth”.

B1: endogenous TBC1D7 protein (human, lung cancer LC319 cells) (other)
chain: MTEDSQRNFRSVYYEKVGFRGVEEKKSLEILLKDDRLDTEKLCTFSQRFPLPSMYRALVWKVLLGILPPHHESHAKVMMYRKEQYLDVLHALKVVRFVSDATPQAEVYLRMYQLESGKLPRSPSFPLEPDDEVFLAIAKAMEEMVEDSVDCYWITRRFVNQLNTKYRDSLPQLPKAFEQYLNLEDGRLLTHLRMCSAAPKLPYDLWFKRCFAGCLPESSLQRVWDKVVSGSCKILVFVAVEILLTFKIKVMALNSAEKITKFLENIPQDSSDAIVSKAIDLWHKHCGTPVHSS
notes: Endogenous protein in cell extracts; also called TBC1 domain family, member 7
As for B1, in data set [7], the binding result was “binds”.
